Ends that are not written are not given here. * marks the point of attachment. long‑chain biotin = O=C(CCCC[C@@H]1SC[C@@H]2NC(=O)N[C@@H]21)NCCCCCC(=O)*
Legend:
[1] = tested on: MHC molecules with kss Eβ chains; experiment: Peptide binding to cell-associated class II MHC molecules using biotinylated peptides; set-up: species or system mouse
Experimental: A modified version of the assay described in Busch et al., Int. Immunol., 2, 443-51 (1990), was used to measure peptide binding to cell-associated class II MHC molecules. After extensive washing in phosphate buffered saline (PBS)-1% bovine serum albumin (BSA), 2×10^5 DAP.3 cells or DAP.3 transfectants expressing various EαEβ molecules were incubated at 37° C. in 200 μl of PBS-2% FCS containing the indicated concentration of biotinylated peptide. In the competition experiments competitors were added at the same time as labeled peptide and at the indicated concentrations. After 4 hours, the cells were washed and stained with a sandwich of FITC-avidin (Vector), biotinylated-anti-avidin (Vector), and FITC-avidin (Vector). After washing, the cells were analyzed on a FAScan flow cytometer for fluorescence. Only viable cells were considered in the analysis, as determined by PI staining. The data are expressed as net mean fluorescence intensity (MFI), calculated by subtracting from the actual MFI the MFI obtained by staining in the absence of biotinylated-peptide. Percent inhibition in the competition experiments was calculated as: % of I=(net MFI without competitor−net MFI with competitor)/(net MFI without […]).

[2] = tested on: 3C6 Th1 cells; experiment: IL-2 production by 3C6 Th1 cells co-cultured with transfected L cells (CTLL indicator cells); type: cell-based, mouse; conditions: L cells expressing MHC molecules with kss Eβ chains
Experimental: Production of IL-2 and IL-3 in response to L cell transfectants in the presence or absence of added peptide was measured as described in Ronchese et al., Nature, 329, 254-6 (1987b). In brief, 2−5×10^4 T cells were incubated with 2−5×10^4 transfected L cells in the wells of 96-well flat bottom culture plates in 200 μl of complete medium with or without various concentrations of peptide antigen. Supernatants were collected after 24 hours and assayed for IL-2 content using CTLL indicator cells, or for IL-3 content using FDC.1 cells. IL-2 and IL-3 units were calculated as the inverse of the dilution giving 50% of the maximum ^3H-thymidine incorporation by CTLL (IL-2) or FDC.1 (IL-3) cells observed with reference IL-2 and IL-3 preparations. Proliferative responses were measured by assessing ^3H-thymidine incorporation between 48-66 hrs of culture. For experiments in which the data are expressed as “% max” or “% alloresponse”, the actual absolute 100% responses were: IL-2 alloresponse, 10-40 units/ml; IL-3 alloresponse, 100-500 units/ml; IL-2 response to EαEβ^k plus PCC peptide, 150-300 units/ml; IL-3 response to EαEβ^k plus PCC peptide, 1000-10,000 units/ml; IL-2 response to fixed cells bearing EαEβ^k plus PCC peptide, 30-50 units/ml; IL-3 response to fixed cells bearing EαEβ^k plus PCC peptide, 50-200 units/ml. […]

Substance	binding to MHC molecule with kss chains, competition for binding of biotinylated-DASP ([1]; biotinylated-DASP 25 μM, FIG. 2A)	effect of peptide on alloreactive stimulation of IL-2 production [2]	direct binding of biotinylated peptide to MHC molecules with kss chains ([1]; FIG. 3A)
HEL 46-61: hen egg lysozyme (HEL) peptide 46-61	able to bind the MHC molecule with kss chains to a similar extent as the inhibitory PCC 81-104 peptide	–	–
HEL 81-96: hen egg lysozyme (HEL) peptide 81-96, with NH2-terminal long-chain biotin in FIG. 3 ({long‑chain biotin}-SALLSSDITASVNCAK; UniProt P00698 99-114, looked up, fragment)	–	lacked ability to inhibit alloreactive stimulation of IL-2 production	bound well to the MHC molecules with kss chains

From patent US6900024B2, “T cell receptor ligands and methods of using same” (The United States of America as represented by the …, priority 1993, dated 2005)
